The test system of one assay is Plasmopara viticola. In words: Plasmopara viticola (downy mildew of grapevine) leaf disk assay. It is filed as in vivo. The note with it: foliar, 168 h, preventive, seven days after inoculation, read-out: control of fungal infection, Plasmopara viticola.
Another assay relates to Phytophthora infestans. In words: whole plant or invertebrate. It is filed as in vivo. The note with it: foliar, 96 h, read-out: control of fungal infection, Phytophthora infestans.
The next assay deals with Tetranychus urticae. The note with it: foliar, 192 h, read-out: control of Tetranychus urticae.
The subject of another assay is Myzus persicae. In words: Myzus persicae (Green peach aphid) sunflower leaf disc test. The note with it: foliar, 144 h, read-out: control of Myzus persicae.
The subject of assay [1] is Erysiphe graminis f.sp. tritici. In words: Erysiphe graminis f.sp. tritici (wheat powdery mildew) leaf disk assay. The assay is classed as in vivo. The note with it: Blumeria graminis, foliar, 96 h, preventive, four days after inoculation, read-out: control of fungal infection, Erysiphe graminis fsp. tritici.
Assay [2] relates to Puccinia recondita f.sp. tritici. In words: Puccinia recondita f.sp. tritici (wheat brown rust) leaf disk assay. It is filed as in vivo. The note with it: foliar, 216 h, preventive, nine days after inoculation, read-out: control of fungal infection, Puccinia recondita f.sp. tritici.
In another assay the test system is Pyricularia oryzae. The assay can be described thus: whole plant or invertebrate. It is filed as in vivo. The note with it: foliar, 96 h.
In the next assay the test system is Pythium ultimum. In words: Pythium ultimum (Damping off) growth inhibition in potato dextrose broth. To be noted: Globisporangium ultimum, 48 hours, read-out: control of fungal infection, Pythium ultimum. It is filed as cell-based.
For the next assay, the system named is Plutella xylostella. In words: Plutella xylostella (Diamond back moth) artificial diet test. The note with it: 120 h, read-out: control of Plutella xylostella.
Another assay deals with Heliothis virescens. The assay can be described thus: Heliothis virescens (Tobacco budworm) egg test on artificial diet. The note with it: 96 h, read-out: control of Heliothis virescens.
The next assay relates to Aedes aegypti. In words: Aedes aegypti (Yellow fever mosquito) larvae test. The assay is classed as in vivo. The note with it: 48 h.
[3] abbreviates: read-out: control of fungal infection, Pyricularia oryzae (at least 60% list).
The mark [4] stands for this setting: read-out: control of fungal infection, Pyricularia oryzae (at least 80% list).

Where two headings read alike, the source gives them in different places.

As for `CC(C)(C)c1ccc(OC2C[C@H]3CC[C@@H](C2)N3c2ncnc3sccc23)cc1` (some centres unmarked) [Example 1.25], the pest or weed control at 200 ppm with Plasmopara viticola, in the assay on Phytophthora infestans, in the assay with Tetranychus urticae and in the assay on Myzus persicae was at least 80% each time.

On to `CCc1ncnc(N2[C@@H]3CC[C@H]2CC(Oc2ccc(CCC(C)=O)cc2)C3)c1Cl` (some centres unmarked) [Example 1.213], for which the pest or weed control at 200 ppm (with Tetranychus urticae; in assay [1]; in assay [2]; with Myzus persicae) was at least 80% throughout.

In the case of `Fc1cccc2c(N3[C@@H]4CC[C@H]3CC(Oc3ccc(C(F)(F)F)cn3)C4)ccnc12` (some centres unmarked) [Example 2.201], the pest or weed control at 200 ppm was at least 60% with Pyricularia oryzae (setting [3]); at least 80% in the assay with Plutella xylostella; at least 80% in the assay with Heliothis virescens; at least 80% in the assay with Phytophthora infestans; at least 80% with Tetranychus urticae; at least 80% in [1]. The pest or weed control at 200 ppm in assay [2] is at least 80%. Further, the inhibition of growth at 200 ppm in the assay with Pythium ultimum is at least 60%. The pest or weed control at 2 ppm in the assay with Aedes aegypti was at least 80%.

With `Cc1ccc(OCC=C2CC3CCC(C2)N3c2ncnc3sccc23)cn1` [Example 3.29], the pest or weed control at 200 ppm (in the assay on Pyricularia oryzae (setting [4]); in the assay on Plutella xylostella; with Plasmopara viticola; in the assay with Heliothis virescens; in the assay on Phytophthora infestans; in assay [2]) was at least 80% in each case. Besides, in the assay on Myzus persicae, the pest or weed control at 200 ppm is at least 80%. Besides, the pest or weed control at 2 ppm in the assay on Aedes aegypti is at least 80%.

In the case of `CCc1ncnc(N2C3CCC2CC(=NOCc2ccc(C)cc2)C3)c1Cl` [Example 5.7], the pest or weed control at 200 ppm (in the assay on Plutella xylostella; in the assay with Phytophthora infestans; in assay [1]; in [2]; with Myzus persicae) was at least 80% throughout. The pest or weed control at 2 ppm in the assay on Aedes aegypti was at least 80%.

For `CCc1ncnc(N2C3CCC2CC(=NOCc2ccc(Cl)cc2)C3)c1Cl` [Example 5.21], the pest or weed control at 200 ppm (in the assay on Pyricularia oryzae (setting [4]); in the assay with Plutella xylostella; in the assay on Heliothis virescens; with Phytophthora infestans; in [1]; in assay [2]) was at least 80% throughout. Also, the pest or weed control at 200 ppm with Myzus persicae is at least 80%. Further, in the assay on Aedes aegypti, the pest or weed control at 2 ppm was at least 80%.

As to `CCc1ncnc(N2C3CCC2CC(=NOCc2ccc(C(F)(F)F)cc2)C3)c1Cl` [Example 5.43], the pest or weed control at 200 ppm (in the assay with Pyricularia oryzae (setting [4]); in the assay on Plutella xylostella; with Tetranychus urticae; in assay [1]; in assay [2]; with Myzus persicae) was at least 80% throughout.

Turning to `CCc1ncnc(N2C3CCC2CC(=NOCc2ccccc2F)C3)c1Cl` [Example 5.54], the pest or weed control at 200 ppm (in the assay on Plutella xylostella; with Tetranychus urticae; in assay [1]; in [2]; with Myzus persicae) was at least 80% throughout. Moreover, the pest or weed control at 2 ppm in the assay with Aedes aegypti was at least 80%.

Turning to `CCc1ncnc(N2C3CCC2CC(=NOCc2ccc(F)cc2Cl)C3)c1Cl` [Example 5.76], the pest or weed control at 200 ppm in the assay on Pyricularia oryzae (setting [3]) was at least 60%; in the assay on Plutella xylostella, at least 80%; in [2], at least 80%; with Myzus persicae, at least 80%. The pest or weed control at 2 ppm with Aedes aegypti was at least 80%.

Consider `CCc1ncnc(N2C3CCC2CC(=NOCc2c(F)ccc(F)c2F)C3)c1Cl` [Example 5.82], for which the pest or weed control at 200 ppm is at least 60% in the assay on Pyricularia oryzae (setting [3]); at least 80% with Plutella xylostella; at least 80% with Phytophthora infestans; at least 80% in [1]; at least 80% in [2]; at least 80% with Myzus persicae. For the same compound, in the assay on Aedes aegypti, the pest or weed control at 2 ppm was at least 80%.

For the compound `CCc1ncnc(N2C3CCC2CC(=NOCc2cc4c(cc2Cl)OCO4)C3)c1Cl` [Example 5.114], the pest or weed control at 200 ppm (with Plasmopara viticola; in assay [1]; in assay [2]; in the assay on Myzus persicae) was at least 80% throughout. Also, the pest or weed control at 2 ppm with Aedes aegypti is at least 80%.

Turning to `c1ccc(CON=C2CC3CCC(C2)N3c2ncnc3sccc23)cc1` [Example 5.138], the pest or weed control at 200 ppm was at least 60% with Pyricularia oryzae (setting [3]); at least 80% in the assay on Plutella xylostella; at least 80% with Plasmopara viticola; at least 80% in the assay with Heliothis virescens; at least 80% in the assay with Phytophthora infestans; at least 80% with Tetranychus urticae. Moreover, the pest or weed control at 200 ppm in assay [1] and in assay [2] was at least 80% each time. The inhibition of growth at 200 ppm in the assay with Pythium ultimum was at least 60%. In the assay on Aedes aegypti, this compound yielded a pest or weed control at 2 ppm of at least 80%.

On to `Clc1ccc(CON=C2CC3CCC(C2)N3c2ncnc3sccc23)c(Cl)c1` [Example 5.152], for which the pest or weed control at 200 ppm in the assay on Pyricularia oryzae (setting [3]) is at least 60%; with Plutella xylostella it was at least 80%; with Heliothis virescens, at least 80%; in assay [1] it was at least 80%; in assay [2], at least 80%; in the assay on Myzus persicae it was at least 80%. The compound further came in with a pest or weed control at 2 ppm in the assay with Aedes aegypti of at least 80%.

With `Fc1ccc(CON=C2CC3CCC(C2)N3c2ncnc3sccc23)cc1` [Example 5.166], the pest or weed control at 200 ppm in the assay on Pyricularia oryzae (setting [3]) is at least 60%; with Pyricularia oryzae (setting [4]) it was at least 80%; in the assay with Plutella xylostella, at least 80%; with Plasmopara viticola, at least 80%; in the assay with Phytophthora infestans it was at least 80%; in assay [1], at least 80%. Further, the pest or weed control at 200 ppm (in [2]; in the assay on Myzus persicae) was at least 80% throughout. This compound yielded a pest or weed control at 2 ppm in the assay with Aedes aegypti of at least 80%.

With `Cc1ccc(CON=C2CC3CCC(C2)N3c2ncnc3sccc23)c(C)c1` [Example 5.190], the pest or weed control at 200 ppm (in the assay with Plutella xylostella; with Plasmopara viticola; with Phytophthora infestans; in assay [1]; in assay [2]; in the assay with Myzus persicae) was at least 80% each time. The pest or weed control at 2 ppm in the assay on Aedes aegypti is at least 80%.

With `Fc1ccc(CON=C2CC3CCC(C2)N3c2ncnc3sccc23)c(F)c1F` [Example 5.222], the pest or weed control at 200 ppm was at least 60% with Pyricularia oryzae (setting [3]); at least 80% in the assay on Plutella xylostella; at least 80% in the assay with Plasmopara viticola; at least 80% in [1]; at least 80% in [2]; at least 80% in the assay on Myzus persicae. The inhibition of growth at 200 ppm in the assay with Pythium ultimum is at least 60%. For the same compound, the pest or weed control at 2 ppm in the assay with Aedes aegypti is at least 80%.

For the compound `Cc1nc(CON=C2CC3CCC(C2)N3c2ncnc3sccc23)no1` [Example 5.245], the pest or weed control at 200 ppm (in the assay with Pyricularia oryzae (setting [4]); with Plutella xylostella; with Heliothis virescens; in [1]; in assay [2]; in the assay with Myzus persicae) was at least 80% in each case. The compound also came in with a pest or weed control at 2 ppm in the assay on Aedes aegypti of at least 80%.

For the origin of these results see patent publication US20100331348A1, “TROPANE DERIVATIVES USEFUL AS PESTICIDES” (SYNGENTA CROP PROTECTION, INC., priority 2007, published 2010).
